PubChem BioAssay (NCI)
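Method: 48-hour compound exposure of cells in 96-well plates, five concentrations, linear interpolation of endpoints. Definition used: TGI = concentration required for complete inhibition of growth.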

Key:
Assay in all cases: growth of human tumour cells (NCI), 48 h
UACC-62 melanoma = test system: UACC-62 melanoma
M14 melanoma = test system: M14 melanoma
NCI-H522 lung = test system: NCI-H522 lung
IGROV1 ovarian = test system: IGROV1 ovarian
OVCAR-3 ovarian = test system: OVCAR-3 ovarian
CCRF-CEM leukemia = test system: CCRF-CEM leukemia
NCI-H460 lung = test system: NCI-H460 lung
MOLT-4 leukemia = test system: MOLT-4 leukemia
HOP-62 NSCLC = test system: HOP-62 NSCLC
SK-OV-3 ovarian = test system: SK-OV-3 ovarian
ACHN renal = test system: ACHN renal
EKVX NSCLC = test system: EKVX NSCLC
SW-620 colon = test system: SW-620 colon
786-0 renal = test system: 786-0 renal
A498 renal = test system: A498 renal
NCI/ADR-RES ovarian = test system: NCI/ADR-RES ovarian
OVCAR-5 ovarian = test system: OVCAR-5 ovarian
MDA-MB-231 breast = test system: MDA-MB-231 breast
MCF7 breast = test system: MCF7 breast

Compound	TGI (UACC-62 melanoma) [µM]	TGI (M14 melanoma) [µM]	TGI (NCI-H522 lung) [µM]	TGI (IGROV1 ovarian) [µM]	TGI (OVCAR-3 ovarian) [µM]	TGI (CCRF-CEM leukemia) [µM]	TGI (NCI-H460 lung) [µM]	TGI (MOLT-4 leukemia) [µM]	TGI (HOP-62 NSCLC) [µM]	TGI (SK-OV-3 ovarian) [µM]	TGI (ACHN renal) [µM]	TGI (EKVX NSCLC) [µM]	TGI (SW-620 colon) [µM]	TGI (786-0 renal) [µM]	TGI (A498 renal) [µM]	TGI (NCI/ADR-RES ovarian) [µM]	TGI (OVCAR-5 ovarian) [µM]	TGI (MDA-MB-231 breast) [µM]	TGI (MCF7 breast) [µM]
COC(=O)/C(=C/CC(N=C(c1ccccc1)c1ccccc1)C(=O)OC)N=C(c1ccccc1)c1ccccc1 (stereo unspecified)	> 100	> 100	> 100	> 100	> 100	> 100	> 100	> 100	> 100	> 100	> 100	> 100	> 100	> 100					
CO[C@H](c1ccccc1)[C@H](O)[C@](O)(c1ccccc1)P(=O)(OC)OC	> 100	> 100	> 100	> 100	> 100	> 100	> 100	> 100		> 100	> 100	> 100	> 100	> 100	> 100	> 100	> 100	> 100	
COc1cc(-c2c(C)c(C)nc(OC)c2C#N)cc(OC)c1OC	> 100	> 100		> 100	> 100	> 100	> 100	> 100	> 100	> 100	> 100	> 100	> 100	> 100	> 100				
Cc1cc(C)n(-c2c(O)ccc(O)c2-n2nc(C)cc2C)n1	> 100	> 100	> 100	> 100	> 100	> 100	> 100	> 100	> 100	> 100	> 100	> 100	> 100	> 100	> 100		> 100		
N=C(N)C1CN(CC=O)C(=O)NC1=O (stereo unspecified)	> 100	> 100		> 100	> 100	> 100	> 100	> 100	> 100	> 100	> 100	> 100	> 100	> 100	> 100	> 100	> 100	> 100	> 100
COC(=O)c1cc(C#N)[nH]c1-c1cccs1	> 100	> 100	> 100		> 100	> 100	> 100	> 100	> 100	> 100	> 100	> 100	> 100	> 100	86	> 100	> 100	> 100	
CSC(=N)N1N=C2c3ccccc3CC[C@@H]2[C@@H]1c1ccccc1	41.7	27.4	27.8	34.8	36	65	27.2	35.8	32.8	41.6	50.2	44.4	29.9	25.6	35.2		34.7		
COc1c(O)cc2c(c1O)C1O[C@H](CO)C(O)[C@H](O)[C@H]1OC2=O (stereo partly specified)		> 100	> 100	> 100	> 100	> 100	> 100	> 100	> 100	> 100	> 100		> 100	> 100		> 100	> 100	> 100	> 100
O=C(NN1C(=O)c2ccccc2C1=O)c1ccccc1Nc1ccccc1C(=O)NN1C(=O)c2ccccc2C1=O	> 100	> 100	> 100	> 100	> 100	> 100	> 100	> 100	> 100		> 100	> 100	> 100	> 100		> 100	> 100	> 100	> 100
CN(CCO)c1nc2c(c(=O)[nH]1)CNCC2	> 100	> 100	> 100	> 100	> 100	> 100	> 100	> 100	> 100	> 100	> 100	> 100	> 100	> 100			> 100		
Nc1ccc(C(=O)NN2C(=O)C(Cl)C2c2ccccc2O)cc1 (stereo unspecified)	> 100	> 100	> 100	> 100	> 100	> 100	> 100	> 100	> 100	> 100	> 100	> 100	> 100	> 100			> 100		
CCCCc1ccc(N2C(=O)c3cccnc3S2(=O)=O)cc1	> 100	> 100	> 100	> 100	> 100	> 100	> 100	> 100	> 100	> 100	> 100	> 100	> 100	> 100	> 100	> 100	> 100	> 100	> 100
CC1=[N+]([O-])C(C)(C)N(O)C1(C)C	> 100	> 100	> 100	> 100	> 100	> 100	> 100	> 100	> 100	> 100	> 100	> 100	> 100	> 100	> 100	> 100	> 100	> 100	> 100
Cn1c2cccc3nnc4cccc(c4c32)n1C	> 100	> 100		> 100	> 100	> 100	> 100	> 100			> 100	> 100	> 100	> 100	> 100		> 100		
